Laboratory results from ChEMBL document CHEMBL1148150, “New cytotoxic furanosesterterpenes from an Okinawan marine sponge, Ircinia sp” (J Nat Prod, 2003).

The compounds below were run on KB (assay: Cytotoxicity against human KB cells).
Assay type: functional, cell-based

Question: For `CCC(O)C(=O)C[C@@H](C)CCC/C(C)=C\C=C\[C@]1(C)CCCc2ccoc21` (stereo not given in full), which IC50 is on record?
Answer: The IC50 was under 1 mg/L.

Question: For `C/C(=C/C=C/[C@]1(C)CCCc2ccoc21)CCC[C@H](C)CC(=O)[C@@H](O)[C@H](C)Cl`, which IC50 is on record?
Answer: Its IC50 is under 1 mg/L.

Question: With `CC1=C(O)/C(=C/[C@@H](C)CCC/C(C)=C/C=C/[C@]2(C)CCCc3ccoc32)OC1=O` as the compound, how does the IC50 read?
Answer: Its IC50 is at least 1 mg/L.

Question: How did the IC50 turn out when `CC1=C(O)/C(=C/[C@@H](C)CCC/C(C)=C\C=C\[C@]2(C)CCCc3ccoc32)OC1=O` was run?
Answer: The IC50 was at least 1 mg/L.

Question: Which IC50 does the source give for `C/C(=C/C=C/[C@]1(C)CCCc2ccoc21)CCC[C@H](C)CC(=O)[C@H](O)[C@H](C)Cl` here?
Answer: Its IC50 is under 1 mg/L.
